± gives the expanded uncertainty stated by the source.
Key:
[1] = xn = mol fraction of the nth substance listed; settings: 101 kPa, Liquid, Vibrating tube method
[2] = molar heat capacity at constant pressure; xn = mol fraction of the nth substance listed; settings: 101 kPa, Liquid, Small sample (50 mg) DSC
[3] = excess molar enthalpy (molar enthalpy of mixing); xn = mol fraction of the nth substance listed; settings: 303.15 K, 101 kPa, Liquid, Calvet calorimetry

CCn1cc[n+](C)c1.O=S(=O)([O-])C(F)(F)F [1-ethyl-3-methylimidazolium trifluoromethanesulfonate] + CCO
Settings	mass density, [1] [kg/m3]	molar heat capacity at constant pressure, [2] [J/K/mol]
293.15 K, x1 = 0.0523	883.9 ± 0.4	125.1 ± 1.9
293.15 K, x1 = 0.1	953 ± 0.3	138.9 ± 2.2
293.15 K, x1 = 0.1959	1059.7 ± 0.3	164.1 ± 2.5
293.15 K, x1 = 0.2927	1138.5 ± 0.3	188.3 ± 2.9
293.15 K, x1 = 0.3819	1194.5 ± 0.3	209.7 ± 3.2
293.15 K, x1 = 0.4917	1248.4 ± 0.3	236 ± 3.7
293.15 K, x1 = 0.5983	1289.4 ± 0.3	261.7 ± 4.1
293.15 K, x1 = 0.6899	1318.8 ± 0.3	283.9 ± 4.4
293.15 K, x1 = 0.7829	1343.7 ± 0.3	306.8 ± 4.8
293.15 K, x1 = 0.8784	1365.6 ± 0.3	330.5 ± 5.1
298.15 K, x1 = 0.0523	879.6 ± 0.4	126.8 ± 2
298.15 K, x1 = 0.1	948.7 ± 0.3	140.4 ± 2.2
298.15 K, x1 = 0.1959	1055.4 ± 0.3	165.4 ± 2.6
298.15 K, x1 = 0.2927	1134.1 ± 0.3	189.5 ± 2.9
298.15 K, x1 = 0.3819	1190.2 ± 0.3	211 ± 3.3
298.15 K, x1 = 0.4917	1244.1 ± 0.3	237.4 ± 3.7
298.15 K, x1 = 0.5983	1285.1 ± 0.3	263.3 ± 4.1
298.15 K, x1 = 0.6899	1314.5 ± 0.3	285.4 ± 4.4
298.15 K, x1 = 0.7829	1339.4 ± 0.3	308.5 ± 4.8
298.15 K, x1 = 0.8784	1361.4 ± 0.3	332.5 ± 5.2
303.15 K, x1 = 0.0523	875.3 ± 0.4	128.4 ± 2
303.15 K, x1 = 0.1	944.4 ± 0.3	142 ± 2.2
303.15 K, x1 = 0.1959	1051.1 ± 0.3	166.7 ± 2.6
303.15 K, x1 = 0.2927	1129.8 ± 0.3	190.7 ± 3
303.15 K, x1 = 0.3819	1185.9 ± 0.3	212.3 ± 3.3
303.15 K, x1 = 0.4917	1239.9 ± 0.3	238.8 ± 3.7
303.15 K, x1 = 0.5983	1280.9 ± 0.3	264.9 ± 4.1
303.15 K, x1 = 0.6899	1310.3 ± 0.3	286.9 ± 4.4
303.15 K, x1 = 0.7829	1335.2 ± 0.3	310.3 ± 4.8
303.15 K, x1 = 0.8784	1357.2 ± 0.3	334.5 ± 5.2
308.15 K, x1 = 0.0523	871 ± 0.4	130.3 ± 2
308.15 K, x1 = 0.1	940.2 ± 0.3	143.8 ± 2.2
308.15 K, x1 = 0.1959	1046.8 ± 0.3	168.1 ± 2.6
308.15 K, x1 = 0.2927	1125.6 ± 0.3	192.1 ± 3
308.15 K, x1 = 0.3819	1181.6 ± 0.3	213.8 ± 3.3
308.15 K, x1 = 0.4917	1235.6 ± 0.3	240.4 ± 3.7
308.15 K, x1 = 0.5983	1276.7 ± 0.3	266.5 ± 4.1
308.15 K, x1 = 0.6899	1306.1 ± 0.3	288.5 ± 4.5
308.15 K, x1 = 0.7829	1331 ± 0.3	312.2 ± 4.8
308.15 K, x1 = 0.8784	1353 ± 0.3	336.6 ± 5.2
313.15 K, x1 = 0.0523	866.7 ± 0.4	132.2 ± 2
313.15 K, x1 = 0.1	935.8 ± 0.3	145.5 ± 2.3
313.15 K, x1 = 0.1959	1042.5 ± 0.3	169.5 ± 2.6
313.15 K, x1 = 0.2927	1121.3 ± 0.3	193.5 ± 3
313.15 K, x1 = 0.3819	1177.3 ± 0.3	215.2 ± 3.3
313.15 K, x1 = 0.4917	1231.4 ± 0.3	241.9 ± 3.7
313.15 K, x1 = 0.5983	1272.4 ± 0.3	268.2 ± 4.2
313.15 K, x1 = 0.6899	1301.9 ± 0.3	290.1 ± 4.5
313.15 K, x1 = 0.7829	1326.8 ± 0.3	314.1 ± 4.9
313.15 K, x1 = 0.8784	1348.8 ± 0.3	338.7 ± 5.2
318.15 K, x1 = 0.0523	862.2 ± 0.4	134.2 ± 2.1
318.15 K, x1 = 0.1	931.4 ± 0.3	147.4 ± 2.3
318.15 K, x1 = 0.1959	1038.1 ± 0.3	171.1 ± 2.7
318.15 K, x1 = 0.2927	1116.9 ± 0.3	195 ± 3
318.15 K, x1 = 0.3819	1173 ± 0.3	216.9 ± 3.4
318.15 K, x1 = 0.4917	1227.1 ± 0.3	243.6 ± 3.8
318.15 K, x1 = 0.5983	1268.2 ± 0.3	270 ± 4.2
318.15 K, x1 = 0.6899	1297.7 ± 0.3	291.9 ± 4.5
318.15 K, x1 = 0.7829	1322.6 ± 0.3	316.1 ± 4.9
318.15 K, x1 = 0.8784	1344.7 ± 0.3	340.9 ± 5.3

[3]
Settings	excess molar enthalpy [kcal/mol]
x1 = 0.1271	0.291 ± 0.0234
x1 = 0.2489	0.411 ± 0.0335
x1 = 0.3752	0.449 ± 0.0359
x1 = 0.5006	0.424 ± 0.0335
x1 = 0.6176	0.363 ± 0.0287
x1 = 0.7501	0.26 ± 0.0208
x1 = 0.869	0.143 ± 0.0115

From the NIST ThermoML archive (doi:10.1016/j.fluid.2008.09.004)
